Holding throughout (test): relative viability (nuclei count vs DMSO), 5 days (fraction); higher = more cells survive
Compound in the assay “Dabrafenib + Bortezomib”: CC(C)(C)c1nc(-c2cccc(NS(=O)(=O)c3c(F)cccc3F)c2F)c(-c2ccnc(N)n2)s1 [Dabrafenib] + CC(C)C[C@H](NC(=O)[C@H](Cc1ccccc1)NC(=O)c1cnccn1)B(O)O [Bortezomib] (partner 0.002 µM)
A digest of the protocol:
(§1)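 Lung cancer cell lines were seeded in 1536-well plates and dosed by pin tool the next day, with either a single drug or a fixed anchor-drug dose combined with five library-drug doses (not always all listed) spaced in √10 steps. Five days later, one step fixed the cells and stained their nuclei (final 0.05% Triton X-100, 1% formaldehyde, 1 ug/ml Hoechst), and nuclei were counted on 4× images. Relative viability is the nuclei count in treated wells divided by the count in vehicle wells, and each value is the median of duplicate plates.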

Compound in the assay “Dabrafenib + Crizotinib”: CC(C)(C)c1nc(-c2cccc(NS(=O)(=O)c3c(F)cccc3F)c2F)c(-c2ccnc(N)n2)s1 [Dabrafenib] + C[C@@H](Oc1cc(-c2cnn(C3CCNCC3)c2)cnc1N)c1c(Cl)ccc(F)c1Cl [Crizotinib] (partner 1 µM)
A digest of the protocol: as §1

Compound in the assay “VX-702 + Bortezomib”: NC(=O)c1ccc(N(C(N)=O)c2c(F)cccc2F)nc1-c1ccc(F)cc1F [VX-702] + CC(C)C[C@H](NC(=O)[C@H](Cc1ccccc1)NC(=O)c1cnccn1)B(O)O [Bortezomib] (partner 0.002 µM)
A digest of the protocol:
as §1

Compound in the assay “VX-702 + AZD7762”: NC(=O)c1ccc(N(C(N)=O)c2c(F)cccc2F)nc1-c1ccc(F)cc1F [VX-702] + NC(=O)Nc1cc(-c2cccc(F)c2)sc1C(=O)N[C@H]1CCCNC1 [AZD7762] (partner 0.2 µM)
A digest of the protocol: as §1

As to NCI-H2087, the relative viability with Dabrafenib + Bortezomib (first compound 0.003 µM) turned out to be 0.814; in the assay with Dabrafenib + Bortezomib (first compound 0.009487 µM), 0.752; in the assay with Dabrafenib + Bortezomib (first compound 0.03 µM), 0.564; in the assay with Dabrafenib + Bortezomib (first compound 0.09487 µM), 0.648; in the assay with Dabrafenib + Bortezomib (first compound 0.3 µM), 0.761; with Dabrafenib + Crizotinib (first compound 0.003 µM), 0.821. Besides, the relative viability with Dabrafenib + Crizotinib (first compound 0.009487 µM) turned out to be 0.788; with Dabrafenib + Crizotinib (first compound 0.03 µM), 0.715; with Dabrafenib + Crizotinib (first compound 0.09487 µM) it was 0.736; with Dabrafenib + Crizotinib (first compound 0.3 µM) it was 0.675; with VX-702 + Bortezomib (first compound 0.02 µM), 0.824; with VX-702 + Bortezomib (first compound 0.2 µM) it was 0.889. In addition, the relative viability with VX-702 + Bortezomib (first compound 0.6325 µM) amounted to 0.818; with VX-702 + Bortezomib (first compound 2 µM), 0.914; in the assay with VX-702 + AZD7762 (first compound 0.02 µM), 1.53; with VX-702 + AZD7762 (first compound 0.2 µM) it was 1.35; with VX-702 + AZD7762 (first compound 0.6325 µM), 1.54; in the assay with VX-702 + AZD7762 (first compound 2 µM) it was 1.34.

NCI-H2126: the relative viability with Dabrafenib + Bortezomib (first compound 0.003 µM) was determined as 1.1; with Dabrafenib + Bortezomib (first compound 0.009487 µM), 1.1; in the assay with Dabrafenib + Bortezomib (first compound 0.03 µM), 1.12; with Dabrafenib + Bortezomib (first compound 0.09487 µM), 1.13; with Dabrafenib + Bortezomib (first compound 0.3 µM) it was 1.15; in the assay with Dabrafenib + Crizotinib (first compound 0.003 µM), 1.01. For the same cell line, the relative viability with Dabrafenib + Crizotinib (first compound 0.009487 µM) stood at 1.02; with Dabrafenib + Crizotinib (first compound 0.03 µM) it was 0.986; in the assay with Dabrafenib + Crizotinib (first compound 0.09487 µM), 1.01; with Dabrafenib + Crizotinib (first compound 0.3 µM), 1.01; with VX-702 + Bortezomib (first compound 0.02 µM), 1.11; with VX-702 + Bortezomib (first compound 0.2 µM), 1.06. The relative viability came out at 1.11 in the assay with VX-702 + Bortezomib (first compound 0.6325 µM); 1.25 in the assay with VX-702 + Bortezomib (first compound 2 µM); 0.995 with VX-702 + AZD7762 (first compound 0.02 µM); 0.979 with VX-702 + AZD7762 (first compound 0.2 µM); 1.02 with VX-702 + AZD7762 (first compound 0.6325 µM); 1.05 with VX-702 + AZD7762 (first compound 2 µM).

As to NCI-H2347, the relative viability with Dabrafenib + Bortezomib (first compound 0.009487 µM) was 1.2; in the assay with Dabrafenib + Bortezomib (first compound 0.3 µM), 0.84; with Dabrafenib + Crizotinib (first compound 0.003 µM) it was 0.441; with Dabrafenib + Crizotinib (first compound 0.009487 µM), 0.698; with Dabrafenib + Crizotinib (first compound 0.03 µM), 0.67; with Dabrafenib + Crizotinib (first compound 0.09487 µM), 0.674. Also, the relative viability in the assay with Dabrafenib + Crizotinib (first compound 0.3 µM) came out at 0.62; with VX-702 + Bortezomib (first compound 0.02 µM), 0.995; in the assay with VX-702 + Bortezomib (first compound 0.2 µM) it was 0.83; with VX-702 + Bortezomib (first compound 0.6325 µM) it was 1.02; with VX-702 + Bortezomib (first compound 2 µM), 1.13; with VX-702 + AZD7762 (first compound 0.02 µM) it was 0.746. Moreover, the relative viability stood at 0.8 with VX-702 + AZD7762 (first compound 0.2 µM), 0.787 in the assay with VX-702 + AZD7762 (first compound 0.6325 µM) and 0.699 with VX-702 + AZD7762 (first compound 2 µM).

NCI-H2405: the relative viability in the assay with Dabrafenib + Bortezomib (first compound 0.009487 µM) stood at 0.91; with Dabrafenib + Bortezomib (first compound 0.03 µM), 0.766; in the assay with Dabrafenib + Bortezomib (first compound 0.09487 µM) it was 0.867; in the assay with Dabrafenib + Bortezomib (first compound 0.3 µM) it was 0.959; with Dabrafenib + Crizotinib (first compound 0.009487 µM) it was 0.78; with Dabrafenib + Crizotinib (first compound 0.03 µM), 0.52. For the same cell line, the relative viability in the assay with Dabrafenib + Crizotinib (first compound 0.09487 µM) was determined as 0.772; with Dabrafenib + Crizotinib (first compound 0.3 µM), 0.82; with VX-702 + Bortezomib (first compound 0.02 µM), 1.04; in the assay with VX-702 + Bortezomib (first compound 0.2 µM), 0.604; with VX-702 + Bortezomib (first compound 0.6325 µM) it was 0.702; with VX-702 + Bortezomib (first compound 2 µM), 0.977. Besides, the relative viability with VX-702 + AZD7762 (first compound 0.02 µM) came out at 0.822; with VX-702 + AZD7762 (first compound 0.2 µM), 0.766; with VX-702 + AZD7762 (first compound 0.6325 µM) it was 0.784; with VX-702 + AZD7762 (first compound 2 µM), 0.826.

For the cell line NCI-H3122, the relative viability with Dabrafenib + Bortezomib (first compound 0.003 µM) stood at 1.04; with Dabrafenib + Bortezomib (first compound 0.009487 µM), 1.01; with Dabrafenib + Bortezomib (first compound 0.03 µM), 1.12; in the assay with Dabrafenib + Bortezomib (first compound 0.09487 µM), 1.06; with Dabrafenib + Bortezomib (first compound 0.3 µM), 1.1; with Dabrafenib + Crizotinib (first compound 0.003 µM), 0.31. Moreover, the relative viability in the assay with Dabrafenib + Crizotinib (first compound 0.009487 µM) is 0.272; with Dabrafenib + Crizotinib (first compound 0.03 µM), 0.274; with Dabrafenib + Crizotinib (first compound 0.09487 µM) it was 0.259; with Dabrafenib + Crizotinib (first compound 0.3 µM), 0.361; in the assay with VX-702 + Bortezomib (first compound 0.02 µM) it was 0.991; in the assay with VX-702 + Bortezomib (first compound 0.2 µM), 0.958. In addition, the relative viability with VX-702 + Bortezomib (first compound 0.6325 µM) is 0.987; with VX-702 + Bortezomib (first compound 2 µM) it was 0.931; in the assay with VX-702 + AZD7762 (first compound 0.02 µM), 1.07; in the assay with VX-702 + AZD7762 (first compound 0.2 µM), 1.05; with VX-702 + AZD7762 (first compound 0.6325 µM) it was 1.03; in the assay with VX-702 + AZD7762 (first compound 2 µM), 1.01.

As for PC-3 [JPC-3], the relative viability with Dabrafenib + Bortezomib (first compound 0.003 µM) worked out at 0.745; with Dabrafenib + Bortezomib (first compound 0.009487 µM), 0.9; in the assay with Dabrafenib + Bortezomib (first compound 0.03 µM), 0.773; with Dabrafenib + Bortezomib (first compound 0.09487 µM), 0.875; in the assay with Dabrafenib + Bortezomib (first compound 0.3 µM), 0.857; in the assay with Dabrafenib + Crizotinib (first compound 0.003 µM) it was 0.95. Also, the relative viability was 1.03 with Dabrafenib + Crizotinib (first compound 0.009487 µM); 0.978 with Dabrafenib + Crizotinib (first compound 0.03 µM); 1.02 with Dabrafenib + Crizotinib (first compound 0.09487 µM); 1 with Dabrafenib + Crizotinib (first compound 0.3 µM); 0.836 in the assay with VX-702 + Bortezomib (first compound 0.02 µM); 0.796 with VX-702 + Bortezomib (first compound 0.2 µM). The relative viability amounted to 0.966 with VX-702 + Bortezomib (first compound 0.6325 µM); 0.809 in the assay with VX-702 + Bortezomib (first compound 2 µM); 0.797 with VX-702 + AZD7762 (first compound 0.02 µM); 0.853 in the assay with VX-702 + AZD7762 (first compound 0.2 µM); 0.894 with VX-702 + AZD7762 (first compound 0.6325 µM); 0.84 with VX-702 + AZD7762 (first compound 2 µM).

With PC-14, the relative viability with Dabrafenib + Bortezomib (first compound 0.003 µM) amounted to 0.968; with Dabrafenib + Bortezomib (first compound 0.009487 µM), 0.846; with Dabrafenib + Bortezomib (first compound 0.03 µM) it was 0.817; with Dabrafenib + Bortezomib (first compound 0.09487 µM), 0.919; with Dabrafenib + Bortezomib (first compound 0.3 µM) it was 1.03; with Dabrafenib + Crizotinib (first compound 0.003 µM), 0.938. For the same cell line, the relative viability turned out to be 0.867 with Dabrafenib + Crizotinib (first compound 0.009487 µM); 0.878 with Dabrafenib + Crizotinib (first compound 0.03 µM); 0.974 in the assay with Dabrafenib + Crizotinib (first compound 0.09487 µM); 0.982 with Dabrafenib + Crizotinib (first compound 0.3 µM); 0.888 in the assay with VX-702 + Bortezomib (first compound 0.02 µM); 0.852 in the assay with VX-702 + Bortezomib (first compound 0.2 µM). Moreover, the relative viability was 0.854 in the assay with VX-702 + Bortezomib (first compound 0.6325 µM); 0.991 in the assay with VX-702 + Bortezomib (first compound 2 µM); 0.411 in the assay with VX-702 + AZD7762 (first compound 0.02 µM); 0.353 in the assay with VX-702 + AZD7762 (first compound 0.2 µM); 0.37 with VX-702 + AZD7762 (first compound 0.6325 µM); 0.265 in the assay with VX-702 + AZD7762 (first compound 2 µM).

As for RERF-LC-KJ, the relative viability in the assay with Dabrafenib + Bortezomib (first compound 0.003 µM) was found to be 1.02; in the assay with Dabrafenib + Bortezomib (first compound 0.009487 µM), 1.33; in the assay with Dabrafenib + Bortezomib (first compound 0.03 µM) it was 1.05; with Dabrafenib + Bortezomib (first compound 0.09487 µM), 1.05; with Dabrafenib + Bortezomib (first compound 0.3 µM), 1.13; with Dabrafenib + Crizotinib (first compound 0.003 µM), 0.845. Also, the relative viability with Dabrafenib + Crizotinib (first compound 0.009487 µM) came out at 0.791; with Dabrafenib + Crizotinib (first compound 0.03 µM) it was 0.769; with Dabrafenib + Crizotinib (first compound 0.09487 µM), 0.779; in the assay with Dabrafenib + Crizotinib (first compound 0.3 µM) it was 0.846; with VX-702 + Bortezomib (first compound 0.02 µM), 1.18; with VX-702 + Bortezomib (first compound 0.2 µM), 1.06. In addition, the relative viability with VX-702 + Bortezomib (first compound 0.6325 µM) came to 1.2; in the assay with VX-702 + Bortezomib (first compound 2 µM), 1.28; with VX-702 + AZD7762 (first compound 0.02 µM) it was 1.25; with VX-702 + AZD7762 (first compound 0.2 µM) it was 0.963; in the assay with VX-702 + AZD7762 (first compound 0.6325 µM), 1.11; with VX-702 + AZD7762 (first compound 2 µM), 1.09.

Source of the values: the supplement of paper PMC10307832.
